The text below walks through data of US20100034867A1, “DRUG DELIVERY COATING FOR USE WITH A MEDICAL DEVICE AND METHODS OF TREATING VASCULAR INJURY” (ATRIUM MEDICAL CORPORATION, priority 2005, published 2010).

Like-named read-outs stand apart in the source and are kept apart here.

For data set [1], the system named is rabbit iliacs. Kind of data set: Local delivery of calcineurin inhibiting compounds after vascular injury in rabbit iliacs. It is filed as in vivo. An excerpt: Studies in rabbit iliacs following vascular injury conducted by and/or on behalf of the inventors show the benefits of using calcineurin inhibiting compounds like Tacrolimus, Cyclosporin A (CsA) and Cyclosporin derivatives, in small animals like the rat, and in rabbits. […] Such vascular injury and sirolimus medicated inflammation can be characterized as having excessive giant cell formation and esinophil propagation.

The subject of data set [2] is rabbit's iliac vessel. Put plainly: Rapamycin drug eluting stents in rabbit iliac vessel (inflammation, overlapping stents). It is filed as in vivo. An excerpt: The inventors postulate, based on these animal study results, that one consequence of these types of drugs is retarded endothelial cell coverage, and that current drug eluting stents promote more chronic inflammation than would normally be present with a non drug eluting bare metal stent.

Data set [3] concerns rabbit illiac arteries. Put plainly: Methylprednisolone/Cilostazol/Paclitaxel/Taxus study: stents implanted in rabbit iliac arteries for 28 days, histomorphic and histopathologic analyses. Particulars: for reduction in neointima (in words): coated stents; for EEL Area / IEL Area / Intimal Area / Lumen Area / Stenosis: ALPHA-3 coated Atrium Flyer stent, mean ± SD.
The test system of data set [4] is rabbit illiac arteries. Particulars: in vivo. On the procedure:
The Atrium Flyer is compared with bare metal stents, the Atrium Flyer coated with ALPHA-3 without drugs, and Cypher™ drug eluting stent. Histomorphic and histopathologic analyses are then performed.

For data set [5], the system named is rabbit illiac arteries. Particulars: in vivo, 28 days.

Regarding `C=CC[C@@H]1/C=C(\C)C[C@H](C)C[C@H](OC)[C@H]2O[C@@](O)(C(=O)C(=O)N3CCCC[C@H]3C(=O)O[C@H](/C(C)=C/[C@@H]3CC[C@@H](O)[C@H](OC)C3)[C@H](C)[C@@H](O)CC1=O)[C@H](C)C[C@@H]2OC` [Tacrolimus], the “inflammation following vascular injury” value in data set [1] was “effectively reduce inflammation following vascular injury”.
Turning to `CO[C@H]1C[C@@H]2CC[C@@H](C)[C@@](O)(O2)C(=O)C(=O)N2CCCC[C@H]2C(=O)O[C@H]([C@H](C)C[C@@H]2CC[C@@H](O)[C@H](OC)C2)CC(=O)[C@H](C)/C=C(\C)[C@@H](O)[C@@H](OC)C(=O)[C@H](C)C[C@H](C)/C=C/C=C/C=C/1C` [Sirolimus], in data set [2] (rabbit iliacs), the “inflammatory response around the drug eluting stent” value is “presence of numerous giant cells and esinophils”. Besides, in data set [2] (two separate drug eluting stents overlapping in rabbit iliac vessel), the “inflammation induced by the overlapping drug coating” value is given as “increases nearly two fold”. Also, in data set [3] (Atrium stents, high dose), the “arterial healing compared with Taxus Express” value is listed as “(greater) arterial healing at 28 days compared with Taxus™ Express”. In addition, the “tolerability of the coated stent” value in data set [4] was “well tolerated, producing no adverse reaction”.
On to `O=C1CCc2cc(OCCCCc3nnnn3C3CCCCC3)ccc2N1` [Cilostazol], for which the “Fibrin Score” value in data set [5] is recorded as 0. Further, the “reduction in neointima (in words)” value in data set [3] is reported as “No reduction in neointima”.
On to `CC(=O)O[C@H]1C(=O)[C@@]2(C)[C@H]([C@H](OC(=O)c3ccccc3)[C@]3(O)C[C@H](OC(=O)[C@H](O)[C@@H](NC(=O)c4ccccc4)c4ccccc4)C(C)=C1C3(C)C)[C@]1(OC(C)=O)CO[C@@H]1C[C@@H]2O` [Paclitaxel], for which, in data set [5], the “Fibrin Score” value worked out at 0 and the “arterial healing compared with Taxus Express” value is given as “(greater) arterial healing at 28 days compared with Taxus™ Express”. For the same compound, the “in-stent neointimal growth (in words)” value in data set [3] (Atrium stents, high dose) is “suppresses in-stent neointimal growth at 28 days similarly to the Taxus™ Express stent”.
`C[C@H]1C[C@@H]2[C@H]([C@@H](O)C[C@@]3(C)[C@H]2CC[C@]3(O)C(=O)CO)[C@@]2(C)C=CC(=O)C=C12` [Methylprednilsolone]: in data set [3] (high dose), the “EEL Area” value is 5.50 ± 0.26 mm^2, the “IEL Area” value stood at 5.25 ± 0.24 mm^2, the “Intimal Area” value amounted to 1.165 ± 0.231 mm^2 and the “Lumen Area” value came out at 4.08 ± 0.21 mm^2. The Stenosis in data set [3] (high dose) was 22.2 ± 1.4%. Further, in data set [3] (low dose), the “EEL Area” value amounted to 5.90 ± 0.92 mm^2, the “IEL Area” value came to 5.62 ± 0.90 mm^2, the “Intimal Area” value came out at 1.054 ± 0.923 mm^2 and the “Lumen Area” value came to 4.42 ± 0.82 mm^2. In addition, the Stenosis in data set [3] (low dose) stood at 21.5 ± 4.7%. For the same compound, in data set [3] (mid-dose), the “EEL Area” value stood at 5.68 ± 0.34 mm^2, the “IEL Area” value was determined as 5.40 ± 0.30 mm^2, the “Intimal Area” value was 1.247 ± 0.136 mm^2 and the “Lumen Area” value is 4.16 ± 0.40 mm^2. In data set [3] (mid-dose), the Stenosis amounted to 23.1 ± 2.2%. Also, the “reduction in neointima (in words)” value in data set [3] was “No reduction in neointima”.
